Experimental data as given in patent publication US12655116B2, “Substituted isophthalic acid diamides” (Bayer Aktiengesellschaft, priority 2020, dated 2026).

How the values were obtained:
[1] = tested on: ABUTH; experiment: Pre-emergence herbicidal action against ABUTH; type: in vivo, Abutilon theophrasti; conditions: Abutilon theophrasti, 504 h; for pest or weed control at 80 g/ha: scored visually after 3 weeks vs untreated controls (100% = plants have died, 0% = like control plants); for pest or weed control at 20 g/ha: dosage 20 g/ha, scored visually after 3 weeks vs untreated controls, 100% = plants have died, 0% = like control plants, read-out: Pre-emergence action against ABUTH (herbicidal activity in percent)
Outline: (§1)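 Pre-emergence soil-surface spray of formulated compound (WP or EC; 600 to 800 l/ha; 0.2% wetting agent) over seeds sown in sandy loam. After 3 weeks under greenhouse conditions, damage is estimated visually in percent against untreated plants.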

[2] = tested on: STEME; experiment: Post-emergence herbicidal action against STEME; type: in vivo, Stellaria media; conditions: Stellaria media, 504 h
Outline: (§2)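 Spray, one-leaf stage: WP or EC compound in water, 600–800 l/ha, 0.2% wetting agent. Plants held about 3 weeks in the greenhouse, then visually rated in percent of kill compared with untreated controls.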

[3] = tested on: HORMU; experiment: Pre-emergence herbicidal action against HORMU; type: in vivo, Hordeum murinum; conditions: Hordeum murinum, 504 h; 80 g/ha, pre-emergence
Outline: as §1

[4] = tested on: ABUTH; experiment: Post-emergence herbicidal action against ABUTH; type: in vivo, Abutilon theophrasti; conditions: Abutilon theophrasti, 504 h, visual assessment about 3 weeks after treatment vs untreated controls; for pest or weed control at 20 g/ha: dosage 20 g/ha
Outline: as §2

[5] = tested on: POLCO; experiment: Pre-emergence herbicidal action against POLCO; type: in vivo, Polygonum convolvulus; conditions: Fallopia convolvulus, 504 h, dosage 80 g/ha
Outline: as §1

[6] = tested on: ALOMY; experiment: Post-emergence herbicidal action against ALOMY; type: in vivo, Alopecurus myosuroides; conditions: Alopecurus myosuroides, 504 h, visual assessment about 3 weeks after treatment vs untreated controls; for pest or weed control at 20 g/ha: dosage 20 g/ha; for pest or weed control at 5 g/ha: dosage 5 g/ha
Outline: as §2

[7] = tested on: HORMU; experiment: Post-emergence herbicidal action against HORMU; type: in vivo, Hordeum murinum; conditions: Hordeum murinum, 504 h, dosage 20 g/ha
Outline: as §2

[8] = tested on: DIGSA; experiment: Pre-emergence herbicidal action against DIGSA; type: in vivo, Digitaria sanguinalis; conditions: Digitaria sanguinalis, 504 h; for pest or weed control at 20 g/ha: dosage 20 g/ha; for pest or weed control at 80 g/ha: dosage 80 g/ha
Outline: as §1

[9] = tested on: AVEFA; experiment: Post-emergence herbicidal action against AVEFA; type: in vivo, Avena fatua; conditions: Avena fatua, 504 h, visual assessment about 3 weeks after treatment, 100% = plants have died, 0% = like control plants
Outline: as §2

[10] = tested on: SETVI; experiment: Pre-emergence herbicidal action against SETVI; type: in vivo, Setaria viridis; conditions: Setaria viridis, 504 h; for pest or weed control at 20 g/ha: dosage 20 g/ha; for pest or weed control at 80 g/ha: dosage 80 g/ha
Outline: as §1

[11] = tested on: SETVI; experiment: Post-emergence herbicidal action against SETVI; type: in vivo, Setaria viridis; conditions: Setaria viridis, 504 h; for pest or weed control at 5 g/ha: dosage 5 g/ha; for pest or weed control at 20 g/ha: dosage 20 g/ha
Outline: as §2

[12] = tested on: ECHCG; experiment: Post-emergence herbicidal action against ECHCG; type: in vivo, Echinochloa crus-galli; conditions: Echinochloa crus-galli, 504 h, dosage 20 g/ha
Outline: as §2

[13] = tested on: LOLRI; experiment: Pre-emergence herbicidal action against LOLRI; type: in vivo, Lolium rigidum; conditions: Lolium rigidum, 504 h
Outline: as §1

[14] = tested on: AVEFA; experiment: Pre-emergence herbicidal action against AVEFA; type: in vivo, Avena fatua; conditions: Avena fatua, 504 h; 80 g/ha, pre-emergence
Outline: as §1

[15] = tested on: AMARE; experiment: Post-emergence herbicidal action against AMARE; type: in vivo, Amaranthus retroflexus; conditions: Amaranthus retroflexus, 504 h, 20 g/ha, visual assessment about 3 weeks after treatment, 100% = plants have died, 0% = like control plants
Outline: as §2

[16] = tested on: DIGSA; experiment: Post-emergence herbicidal action against DIGSA; type: in vivo, Digitaria sanguinalis; conditions: Digitaria sanguinalis, 504 h
Outline: as §2

[17] = tested on: VIOTR; experiment: Pre-emergence herbicidal action against VIOTR; type: in vivo, Viola tricolor; conditions: Viola tricolor, 504 h; for pest or weed control at 20 g/ha: dosage 20 g/ha; for pest or weed control at 80 g/ha: dosage 80 g/ha
Outline: as §1

[18] = tested on: ALOMY; experiment: Pre-emergence herbicidal action against ALOMY; type: in vivo, Alopecurus myosuroides; conditions: Alopecurus myosuroides, 504 h, pre-emergence; for pest or weed control at 80 g/ha: scored visually after 3 weeks vs untreated controls (100% = plants have died, 0% = like control plants); for pest or weed control at 20 g/ha: scored visually after 3 weeks, 100% = plants have died, 0% = like control plants
Outline: as §1

[19] = tested on: ECHCG; experiment: Pre-emergence herbicidal action against ECHCG; type: in vivo, Echinochloa crus-galli; conditions: Echinochloa crus-galli, 504 h
Outline: as §1

[20] = tested on: AMARE; experiment: Pre-emergence herbicidal action against AMARE; type: in vivo, Amaranthus retroflexus; conditions: Amaranthus retroflexus, 504 h, scored visually after 3 weeks vs untreated controls, 100% = plants have died, 0% = like control plants
Outline: as §1

[21] = tested on: LOLRI; experiment: Post-emergence herbicidal action against LOLRI; type: in vivo, Lolium rigidum; conditions: Lolium rigidum, 504 h, dosage 20 g/ha
Outline: as §2

[22] = tested on: MATIN; experiment: Pre-emergence herbicidal action against MATIN; type: in vivo, Matricaria inodora; conditions: Tripleurospermum inodorum, 504 h; for pest or weed control at 20 g/ha: dosage 20 g/ha; for pest or weed control at 80 g/ha: dosage 80 g/ha
Outline: as §1

[23] = tested on: PHBPU; experiment: Pre-emergence herbicidal action against PHBPU; type: in vivo, Pharbitis purpurea; conditions: Ipomoea purpurea, 504 h, dosage 80 g/ha
Outline: as §1

[24] = tested on: VIOTR; experiment: Post-emergence herbicidal action against VIOTR; type: in vivo, Viola tricolor; conditions: Viola tricolor, 504 h
Outline: as §2

[25] = tested on: STEME; experiment: Pre-emergence herbicidal action against STEME; type: in vivo, Stellaria media; conditions: Stellaria media, 504 h
Outline: as §1

[26] = tested on: VERPE; experiment: Pre-emergence herbicidal action against VERPE; type: in vivo, Veronica persica; conditions: Veronica persica, 504 h
Outline: as §1

[27] = tested on: PHBPU; experiment: Post-emergence herbicidal action against PHBPU; type: in vivo, Pharbitis purpurea; conditions: Ipomoea purpurea, 504 h, dosage 20 g/ha
Outline: as §2

[28] = tested on: VERPE; experiment: Post-emergence herbicidal action against VERPE; type: in vivo, Veronica persica; conditions: Veronica persica, 504 h, 20 g/ha
Outline: as §2

[29] = tested on: POLCO; experiment: Post-emergence herbicidal action against POLCO; type: in vivo, Polygonum convolvulus; conditions: Fallopia convolvulus, 504 h, dosage 20 g/ha
Outline: as §2

[30] = tested on: MATIN; experiment: Post-emergence herbicidal action against MATIN; type: in vivo, Matricaria inodora; conditions: Tripleurospermum inodorum, 504 h, dosage 20 g/ha
Outline: as §2

Row | SMILES | pest or weed control at 80 g/ha [1] [%] | pest or weed control at 20 g/ha [1] [%] | pest or weed control at 20 g/ha [4] [%] | pest or weed control at 20 g/ha [6] [%] | pest or weed control at 20 g/ha [8] [%] | pest or weed control at 80 g/ha [8] [%] | pest or weed control at 20 g/ha [9] [%] | pest or weed control at 80 g/ha [10] [%] | pest or weed control at 20 g/ha [11] [%] | pest or weed control at 20 g/ha [12] [%] | pest or weed control at 80 g/ha [13] [%] | pest or weed control at 80 g/ha [14] [%] | pest or weed control at 20 g/ha [15] [%] | pest or weed control at 80 g/ha [17] [%] | pest or weed control at 80 g/ha [18] [%] | pest or weed control at 20 g/ha [18] [%] | pest or weed control at 80 g/ha [19] [%] | pest or weed control at 20 g/ha [20] [%] | pest or weed control at 80 g/ha [20] [%] | pest or weed control at 20 g/ha [21] [%] | other results
1 | Cn1nnnc1NC(=O)c1ccc(Cl)c(C(=O)NC2CC2)c1Cl [Example 1-173] | 100 | 90 | 90 | 80 | 100 | 100 | 100 | 100 | 90 | 80 | 90 | 100 | 100 | 90 | 100 | 80 | 100 | 100 | 100 | 90 | pest or weed control at 20 g/ha ([2]; 20 g/ha): 100%; pest or weed control at 5 g/ha ([2]; dosage 5 g/ha): 80%; pest or weed control at 80 g/ha [3]: 90%; pest or weed control at 80 g/ha [5]: 80%; pest or weed control at 20 g/ha [7]: 90%; pest or weed control at 5 g/ha ([9]; 5 g/ha): 90%; pest or weed control at 20 g/ha [10]: 90%; pest or weed control at 5 g/ha [11]: 90%; pest or weed control at 20 g/ha ([13]; 20 g/ha): 80%; pest or weed control at 5 g/ha [16]: 90%; pest or weed control at 20 g/ha [16]: 100%; pest or weed control at 20 g/ha [17]: 80%; pest or weed control at 20 g/ha [22]: 80%; pest or weed control at 80 g/ha [22]: 100%; pest or weed control at 80 g/ha [23]: 90%; pest or weed control at 5 g/ha [24]: 90%; pest or weed control at 20 g/ha [24]: 90%; pest or weed control at 20 g/ha ([25]; dosage 20 g/ha): 80%; pest or weed control at 80 g/ha ([25]; dosage 80 g/ha): 100%
2 | CCNC(=O)c1c(Br)ccc(C(=O)Nc2nnnn2C)c1Cl [Example 1-178, 4-bromo-2-chloro-N^3-ethyl-N^1-(1-methyl-1H-tetrazol-5-yl)isophthalamide] | 100 | 90 | 80 | 100 | 100 | 100 | 80 | 100 | 90 | 90 | 80 | 100 | 100 | 100 | 100 | 80 | 100 | 100 | 100 | 80 | pest or weed control at 20 g/ha ([26]; dosage 20 g/ha): 80%; pest or weed control at 80 g/ha ([26]; dosage 80 g/ha): 80%; pest or weed control at 5 g/ha ([4]; dosage 5 g/ha): 80%; pest or weed control at 20 g/ha [27]: 80%; pest or weed control at 20 g/ha [28]: 80%; pest or weed control at 5 g/ha [6]: 90%; pest or weed control at 20 g/ha ([19]; 20 g/ha): 80%; pest or weed control at 20 g/ha [22]: 90%; pest or weed control at 80 g/ha [22]: 100%; pest or weed control at 20 g/ha [29]: 80%; pest or weed control at 80 g/ha [23]: 80%; pest or weed control at 5 g/ha [24]: 80%; pest or weed control at 20 g/ha [24]: 80%; pest or weed control at 20 g/ha [30]: 90%
3 | Cn1nnnc1NC(=O)c1ccc(Br)c(C(=O)NC2CC2)c1Cl [Example 1-179] | 100 | 80 | 80 | 90 | 100 | 100 | 90 | 100 | 90 | 90 | 90 | 100 | 100 | 100 | 100 | 80 | 100 | 100 | 100 | 80 | pest or weed control at 20 g/ha [28]: 80%; pest or weed control at 5 g/ha [6]: 90%; pest or weed control at 20 g/ha [10]: 80%; pest or weed control at 5 g/ha [11]: 90%; pest or weed control at 5 g/ha [16]: 90%; pest or weed control at 20 g/ha [16]: 90%; pest or weed control at 20 g/ha [17]: 100%; pest or weed control at 20 g/ha [22]: 90%; pest or weed control at 80 g/ha [22]: 100%; pest or weed control at 20 g/ha [29]: 80%; pest or weed control at 5 g/ha [24]: 80%; pest or weed control at 20 g/ha [24]: 90%; pest or weed control at 20 g/ha [30]: 80%
